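These data come from cells grown in 96-well plates and exposed to compound for 48 hours at five concentrations. Here, GI50 denotes the concentration required for 50% inhibition of growth. TGI: total growth inhibition.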
Assays:
Assay in all cases: DTP human tumour cell line panel, 48 h
SW-620 colon = system: SW-620 colon
BT-549 breast = system: BT-549 breast
MCF7 breast = system: MCF7 breast
COLO 205 colon = system: COLO 205 colon
HS 578T breast = system: HS 578T breast
MALME-3M melanoma = system: MALME-3M melanoma
U251 CNS = system: U251 CNS
A549 NSCLC = system: A549 NSCLC
SNB-19 CNS = system: SNB-19 CNS
K-562 leukemia = system: K-562 leukemia

Compound	GI50 (SW-620 colon)	GI50 (BT-549 breast)	GI50 (MCF7 breast)	GI50 (COLO 205 colon)	TGI (COLO 205 colon)	GI50 (HS 578T breast)	GI50 (MALME-3M melanoma)	GI50 (U251 CNS)	GI50 (A549 NSCLC)	GI50 (SNB-19 CNS)	GI50 (K-562 leukemia)	TGI (SW-620 colon)	TGI (BT-549 breast)	TGI (MCF7 breast)	TGI (HS 578T breast)	TGI (MALME-3M melanoma)	TGI (U251 CNS)	TGI (A549 NSCLC)	TGI (SNB-19 CNS)	TGI (K-562 leukemia)
C=C1CC(COc2cc(Cl)nc(N)n2)C1	45.7 µM	20.6 µM	39.4 µM	21.1 µM	60.8 µM	49.9 µM	93.3 µM	13.5 µM	33.9 µM	37.2 µM	40 µM									
CC1=C(C)C(=O)O[C@@H]([C@](C)(O)[C@]2(O)CC[C@@]3(O)[C@@H]4C[C@H]5O[C@]56CC=CC(=O)[C@]6(C)[C@H]4CC[C@]23C)C1	0.0989 µM	0.335 µM	0.0668 µM	0.0398 µM	0.176 µM	0.127 µM	0.382 µM	0.483 µM	0.568 µM	0.395 µM	0.0907 µM	1.1 µM	1.45 µM	2.8 µM	2.33 µM	3.4 µM	2.23 µM	5.93 µM	13.7 µM	> 27.8 µM
CCCCCCNc1nc(NCCCCCC)c2[nH]c(NCCCCCC)nc2n1	3.04 µM	7.47 µM	3.22 µM	1.32 µM	2.76 µM	1.97 µM	4.5 µM	2.18 µM	1.58 µM	15.5 µM	7.02 µM	12.3 µM	25.1 µM	15.8 µM	9.84 µM	16.1 µM	8.98 µM	14.8 µM	29.5 µM	25.1 µM
CS(=O)(=O)Nc1ccc(-c2ccc3c(NC(=O)C4CC4)n[nH]c3c2)cc1	> 25 µM	> 19.2 µM	> 23.2 µM	> 25 µM	> 25 µM	24.4 µM	> 23.1 µM	> 25 µM	> 25 µM	> 25 µM	13.3 µM	> 25 µM	> 25 µM	> 25 µM	> 25 µM	> 25 µM	> 25 µM	> 25 µM	> 25 µM	> 25 µM
CCOC(=O)[C@@H](C)C[C@H](Cc1ccccc1)NC(=O)c1csc([C@@H](C[C@H](C(C)C)N(C)C(=O)[C@@H](NC(=O)[C@H]2CCCCN2C)C(C)(C)C)OC(C)=O)n1	< 0.00167 µM	< 0.00167 µM	< 0.00167 µM	< 0.00167 µM	0.00432 µM	< 0.00167 µM	< 0.00167 µM	< 0.00167 µM	< 0.00167 µM	< 0.00167 µM	< 0.00167 µM	> 16.7 µM	0.00961 µM	> 16.7 µM	0.472 µM	> 16.7 µM	> 16.7 µM	> 16.7 µM	> 16.7 µM	> 16.7 µM
CN1CCN(Cc2ccc(NC(=O)c3ccc(C(C)(C)C)c(C#Cc4cnc5cccnn45)c3)cc2C(F)(F)F)CC1	2.04 µM	15 µM	1.82 µM	1.8 µM	3.43 µM	10.4 µM	1.78 µM	1.97 µM	1.91 µM	2.1 µM	0.932 µM	4.09 µM	28.9 µM	3.46 µM	39.2 µM	3.97 µM	3.62 µM	3.57 µM	4.14 µM	2.6 µM
Nc1ccc(SC23CC4CC(CC(C4)C2)C3)cc1					> 100 µM							> 100 µM	> 100 µM	> 100 µM	> 100 µM	> 100 µM	> 100 µM	> 100 µM	> 100 µM	> 100 µM
Oc1c(Br)cc(CN(Cc2cc(Br)c(O)c(Br)c2)C2CCCCC2)cc1Br					> 100 µM							> 100 µM	> 100 µM	> 100 µM	> 100 µM	> 100 µM	> 100 µM	> 100 µM	> 100 µM	> 100 µM
Cc1ncc(NC(=O)c2ccc(CN3CCN(C)CC3)c(C(F)(F)F)c2)cc1Nc1nccc(-c2cccnc2)n1	13.5 µM	18.1 µM	13.8 µM	5.55 µM	21.6 µM	17.7 µM	0.582 µM	15.9 µM	16.4 µM	18 µM		30.4 µM	32.7 µM	28.7 µM	45.7 µM	14.4 µM	29.9 µM	31.5 µM	32.1 µM	> 100 µM
NCCN1CCN(c2nccc(-c3ccc4ccccc4c3)n2)CC1	1.83 µM	4.89 µM	1.67 µM	1.76 µM	3.41 µM	1.73 µM	1.83 µM	1.85 µM	1.86 µM	2.26 µM	2.09 µM	3.61 µM	18.2 µM	3.52 µM	4.37 µM	3.52 µM	3.52 µM	3.43 µM	5.98 µM	4.09 µM
CC(C)(C)c1nc2c(o1)C(=Nc1ccc(F)cc1)c1ccccc1C2=O					30.7 µM							30 µM	12.9 µM	29.1 µM	> 45.7 µM	4.45 µM	19.7 µM	22.7 µM	26.6 µM	> 100 µM

Reference: PubChem BioAssay (NCI)
